Consider 3 molecules from ChEMBL document CHEMBL1201862, “PubChem BioAssay data set” (2004).

The structures appear in SMILES notation.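 Tested at 5 concentrations; 48 h exposure; 96-well plates; endpoints linearly interpolated, else capped at highest concentration. Abbreviation: GI50, concentration required for 50% inhibition of growth.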 Calls of active or inactive are those of the source. Rule as the data show it: active = GI50 up to about 1.1 µM and inactive = higher. Some results are limits rather than exact numbers.

What all share (assay): NCI-60 cell line screen, 48 h
In assay [1] the test system is OVCAR-4.
The subject of assay [2] is SR.
Assay [3] has as its system SW-620.
Assay [4] concerns SNB-75.
The test system of assay [5] is SK-MEL-5.
Assay [6] deals with ACHN.
Assay [7] deals with Malme-3M.
Assay [8] relates to PC-3.
Assay [9] has as its system HCT-116.
In assay [10] the test system is K562.
The subject of assay [11] is HOP-92.
The test system of assay [12] is NCI-H522.
For assay [13], the system named is SK-MEL-2.
In assay [14] the test system is NCI-H23.
Assay [15] relates to A498.
In assay [16] the test system is M14.
Assay [17] relates to A549.
Assay [18] relates to SF-295.
In assay [19] the test system is NCI-H460.
Assay [20] has as its system T47D.

In the case of `CC(=N\N)/C(C)=N/N=C(C)/C(C)=N/N`, the GI50 in [1], in [2], in assay [3], in assay [4], in assay [5] and in assay [6] was > 100 µM (inactive) in each case. The GI50 in assay [7] is > 100 µM (inactive); in [8] it was > 100 µM (inactive); in [9] it was > 100 µM (inactive); in [10], > 10 µM (inactive); in assay [11], > 100 µM (inactive); in assay [12], > 100 µM (inactive). For the same molecule, the GI50 in assay [13], in assay [14], in [15], in [16], in assay [17] and in [18] was > 100 µM (inactive) throughout. For the same molecule, the GI50 in assay [19] and in assay [20] was > 100 µM (inactive) throughout.

With `COc1ccc(C2C(C#N)=C(S)N(C3OC(CO)C(O)C(O)C3O)C(C)=C2C(C)=O)cc1` (stereo not given), the GI50 is > 100 µM (inactive) in [1]; 56.9 µM (inactive) in assay [2]; > 100 µM (inactive) in assay [3]; 42.7 µM (inactive) in [4]; 42.2 µM (inactive) in assay [5]; > 100 µM (inactive) in assay [6]. The GI50 in assay [7] is > 100 µM (inactive); in [8] it was 73.1 µM (inactive); in [9], > 100 µM (inactive); in [10], 59.4 µM (inactive); in assay [11], 29 µM (inactive); in assay [12], 60.4 µM (inactive). The GI50 in assay [13], in [14], in assay [15], in assay [16], in [17] and in assay [18] was > 100 µM (inactive) throughout. In addition, the GI50 was > 100 µM (inactive) in assay [19] and 30.5 µM (inactive) in [20].

Consider `CCCCCCCCCC[C@@H](O)[C@H]1CC[C@@H]([C@H]2CC[C@H]([C@H](O)CCCCCCCCCC[C@@H]3CC(CC(C)=O)C(=O)O3)O2)O1` (stereo not given in full), for which the GI50 is 18.9 µM (inactive) in assay [1]; 0.59 µM (active) in [2]; 4.4 µM (inactive) in assay [3]; 1.42 µM (inactive) in assay [4]; 0.01 µM (active) in assay [5]; 1.17 µM (inactive) in [6]. For the same molecule, the GI50 is 15.1 µM (inactive) in assay [7]; 4.05 µM (inactive) in assay [8]; 2.68 µM (inactive) in assay [9]; 1.84 µM (inactive) in [10]; 17 µM (inactive) in assay [11]; 12.8 µM (inactive) in assay [12]. Besides, the GI50 was 4.94 µM (inactive) in assay [13]; 0.00223 µM (active) in [14]; 38 µM (inactive) in assay [15]; 6.43 µM (inactive) in [16]; 2.16 µM (inactive) in [17]; 1.77 µM (inactive) in assay [18]. The GI50 was 0.147 µM (active) in [19] and 1.7 µM (inactive) in assay [20].
